In test [1] the target is GTP-binding nuclear protein Ran (Homo sapiens, UniProt P62826).
The target of test [2] is Tyrosine-protein kinase ABL1 (Homo sapiens, UniProt P00519).
Test [3] has as its target Mitogen-activated protein kinase 8 (Homo sapiens, UniProt P45983).
In test [4] the target is Tyrosine-protein kinase JAK1 (Homo sapiens, UniProt P23458).
For test [5], the target named is Guanine nucleotide-binding protein G(i) subunit alpha-2 (Homo sapiens, UniProt P04899).
The target of test [6] is T1, Serine/threonine-protein kinase PLK4 (Homo sapiens, UniProt O00444).
T1 sequence (O00444 whole entry): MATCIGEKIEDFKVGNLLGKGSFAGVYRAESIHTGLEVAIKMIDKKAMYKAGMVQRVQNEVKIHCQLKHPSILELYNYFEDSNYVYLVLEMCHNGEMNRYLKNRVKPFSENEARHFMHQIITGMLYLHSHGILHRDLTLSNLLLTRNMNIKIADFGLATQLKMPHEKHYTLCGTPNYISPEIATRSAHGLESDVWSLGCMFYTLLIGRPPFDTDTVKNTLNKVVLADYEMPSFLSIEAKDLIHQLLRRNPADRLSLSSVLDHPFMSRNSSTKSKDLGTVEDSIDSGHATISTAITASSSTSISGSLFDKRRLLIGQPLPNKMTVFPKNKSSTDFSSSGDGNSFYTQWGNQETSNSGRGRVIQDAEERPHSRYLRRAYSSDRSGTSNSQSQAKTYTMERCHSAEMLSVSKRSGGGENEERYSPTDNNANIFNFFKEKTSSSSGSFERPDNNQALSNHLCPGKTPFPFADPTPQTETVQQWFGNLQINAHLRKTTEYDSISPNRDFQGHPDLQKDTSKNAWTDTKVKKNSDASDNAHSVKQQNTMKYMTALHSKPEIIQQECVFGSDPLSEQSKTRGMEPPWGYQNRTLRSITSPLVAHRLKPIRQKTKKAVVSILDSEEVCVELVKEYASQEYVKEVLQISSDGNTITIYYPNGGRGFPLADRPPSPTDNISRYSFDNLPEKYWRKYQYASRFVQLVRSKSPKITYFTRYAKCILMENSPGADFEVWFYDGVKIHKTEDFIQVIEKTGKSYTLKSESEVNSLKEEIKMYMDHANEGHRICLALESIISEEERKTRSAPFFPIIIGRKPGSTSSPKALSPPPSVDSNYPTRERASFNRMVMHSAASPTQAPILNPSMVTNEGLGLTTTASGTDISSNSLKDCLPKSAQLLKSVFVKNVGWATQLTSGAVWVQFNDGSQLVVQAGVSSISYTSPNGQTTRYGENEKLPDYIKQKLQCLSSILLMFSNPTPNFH

In test [7] the target is AP2-associated protein kinase 1 (Homo sapiens, UniProt Q2M2I8).
The target of test [8] is Maternal embryonic leucine zipper kinase (Homo sapiens, UniProt Q14680).
The target of test [9] is Aurora kinase B (Homo sapiens, UniProt Q96GD4).
For test [10], the target named is T2, Ferrochelatase, mitochondrial (Homo sapiens, UniProt P22830).
T2 sequence (P22830 whole entry): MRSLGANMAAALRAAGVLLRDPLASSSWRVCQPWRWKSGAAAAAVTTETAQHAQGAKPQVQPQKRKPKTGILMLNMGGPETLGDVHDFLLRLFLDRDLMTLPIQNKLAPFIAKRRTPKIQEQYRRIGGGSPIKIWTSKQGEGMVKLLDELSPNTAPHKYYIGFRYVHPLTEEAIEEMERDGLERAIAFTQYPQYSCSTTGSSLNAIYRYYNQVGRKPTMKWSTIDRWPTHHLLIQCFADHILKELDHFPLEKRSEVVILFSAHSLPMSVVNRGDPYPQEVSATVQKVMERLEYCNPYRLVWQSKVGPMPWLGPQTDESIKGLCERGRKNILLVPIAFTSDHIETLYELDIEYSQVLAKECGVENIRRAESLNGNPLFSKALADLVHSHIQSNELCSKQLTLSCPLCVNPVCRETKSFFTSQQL

The target of test [11] is Ribosomal protein S6 kinase alpha-1 (Homo sapiens, UniProt Q15418).
Test [12] addresses Serine/threonine-protein kinase N1 (Homo sapiens, UniProt Q16512).
For test [13], the target named is G protein-coupled receptor kinase 6 (Homo sapiens, UniProt P43250).
The target of test [14] is Calcium/calmodulin-dependent protein kinase type II subunit delta (Homo sapiens, UniProt Q13557).
The target of test [15] is Serine/threonine-protein kinase MRCK beta (Homo sapiens, UniProt Q9Y5S2).
In test [16] the target is LIM domain kinase 2 (Homo sapiens, UniProt P53671).
The target of test [17] is 26S proteasome regulatory subunit 6B (Homo sapiens, UniProt P43686).
The target in test [18] is Actin-related protein 2 (Homo sapiens, UniProt P61160).

Active and inactive are the calls of the source. Cut-off read from the data, not from the text of the source, for most assays here: actives have a measured Kd and inactives only a lower limit.
Note: in the data inactive means no Kd found up to 30 µM.

Sequence of Ribosomal protein S6 kinase alpha-1 (Q15418 whole entry): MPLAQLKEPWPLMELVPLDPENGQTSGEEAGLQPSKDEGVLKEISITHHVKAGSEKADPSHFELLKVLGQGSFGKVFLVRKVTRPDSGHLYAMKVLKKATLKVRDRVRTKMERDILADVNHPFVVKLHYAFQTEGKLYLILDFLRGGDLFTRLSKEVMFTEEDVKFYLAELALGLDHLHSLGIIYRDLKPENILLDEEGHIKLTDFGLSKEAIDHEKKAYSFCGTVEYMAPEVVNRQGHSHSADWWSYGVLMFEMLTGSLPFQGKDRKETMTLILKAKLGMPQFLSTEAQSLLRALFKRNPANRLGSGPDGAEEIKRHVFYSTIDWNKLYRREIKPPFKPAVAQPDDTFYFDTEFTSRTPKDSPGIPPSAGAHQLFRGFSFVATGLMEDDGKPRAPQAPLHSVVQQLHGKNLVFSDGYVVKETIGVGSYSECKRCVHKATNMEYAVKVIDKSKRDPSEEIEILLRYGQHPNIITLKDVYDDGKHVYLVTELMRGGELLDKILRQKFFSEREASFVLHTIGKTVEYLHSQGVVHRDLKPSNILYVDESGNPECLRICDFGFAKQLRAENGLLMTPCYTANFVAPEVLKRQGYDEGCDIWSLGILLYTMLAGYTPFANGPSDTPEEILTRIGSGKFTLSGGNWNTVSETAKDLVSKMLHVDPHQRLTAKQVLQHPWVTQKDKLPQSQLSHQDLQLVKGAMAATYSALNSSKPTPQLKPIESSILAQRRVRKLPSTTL
Sequence of Guanine nucleotide-binding protein G(i) subunit alpha-2 (P04899 whole entry): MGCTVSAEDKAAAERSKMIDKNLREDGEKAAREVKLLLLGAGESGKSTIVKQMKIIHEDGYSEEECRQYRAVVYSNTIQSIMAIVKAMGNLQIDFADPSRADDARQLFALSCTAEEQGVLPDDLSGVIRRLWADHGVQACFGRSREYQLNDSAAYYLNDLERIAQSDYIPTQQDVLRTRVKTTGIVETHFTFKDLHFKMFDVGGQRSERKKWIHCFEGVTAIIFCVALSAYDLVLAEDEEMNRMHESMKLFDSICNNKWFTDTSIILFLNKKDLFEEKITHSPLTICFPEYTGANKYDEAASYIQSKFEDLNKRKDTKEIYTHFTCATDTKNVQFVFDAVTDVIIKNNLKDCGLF
Sequence of LIM domain kinase 2 (P53671 whole entry, the tested form may be a part): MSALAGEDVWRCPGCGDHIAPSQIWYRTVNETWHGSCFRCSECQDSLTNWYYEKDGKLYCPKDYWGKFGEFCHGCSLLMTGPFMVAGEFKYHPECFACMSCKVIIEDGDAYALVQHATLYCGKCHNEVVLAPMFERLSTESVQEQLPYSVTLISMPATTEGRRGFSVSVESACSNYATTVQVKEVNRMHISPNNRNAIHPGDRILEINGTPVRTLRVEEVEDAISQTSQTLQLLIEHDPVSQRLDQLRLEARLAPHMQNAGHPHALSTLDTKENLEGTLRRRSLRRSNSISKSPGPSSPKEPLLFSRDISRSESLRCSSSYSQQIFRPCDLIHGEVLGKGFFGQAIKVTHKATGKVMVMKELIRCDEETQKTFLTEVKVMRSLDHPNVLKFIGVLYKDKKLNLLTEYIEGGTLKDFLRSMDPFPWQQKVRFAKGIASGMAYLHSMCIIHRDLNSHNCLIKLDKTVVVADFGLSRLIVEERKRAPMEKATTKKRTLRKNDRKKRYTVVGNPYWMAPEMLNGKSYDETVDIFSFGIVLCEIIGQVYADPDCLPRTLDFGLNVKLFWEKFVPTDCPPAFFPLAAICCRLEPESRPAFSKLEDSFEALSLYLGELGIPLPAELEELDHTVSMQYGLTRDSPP
Sequence of Tyrosine-protein kinase JAK1 (P23458 whole entry): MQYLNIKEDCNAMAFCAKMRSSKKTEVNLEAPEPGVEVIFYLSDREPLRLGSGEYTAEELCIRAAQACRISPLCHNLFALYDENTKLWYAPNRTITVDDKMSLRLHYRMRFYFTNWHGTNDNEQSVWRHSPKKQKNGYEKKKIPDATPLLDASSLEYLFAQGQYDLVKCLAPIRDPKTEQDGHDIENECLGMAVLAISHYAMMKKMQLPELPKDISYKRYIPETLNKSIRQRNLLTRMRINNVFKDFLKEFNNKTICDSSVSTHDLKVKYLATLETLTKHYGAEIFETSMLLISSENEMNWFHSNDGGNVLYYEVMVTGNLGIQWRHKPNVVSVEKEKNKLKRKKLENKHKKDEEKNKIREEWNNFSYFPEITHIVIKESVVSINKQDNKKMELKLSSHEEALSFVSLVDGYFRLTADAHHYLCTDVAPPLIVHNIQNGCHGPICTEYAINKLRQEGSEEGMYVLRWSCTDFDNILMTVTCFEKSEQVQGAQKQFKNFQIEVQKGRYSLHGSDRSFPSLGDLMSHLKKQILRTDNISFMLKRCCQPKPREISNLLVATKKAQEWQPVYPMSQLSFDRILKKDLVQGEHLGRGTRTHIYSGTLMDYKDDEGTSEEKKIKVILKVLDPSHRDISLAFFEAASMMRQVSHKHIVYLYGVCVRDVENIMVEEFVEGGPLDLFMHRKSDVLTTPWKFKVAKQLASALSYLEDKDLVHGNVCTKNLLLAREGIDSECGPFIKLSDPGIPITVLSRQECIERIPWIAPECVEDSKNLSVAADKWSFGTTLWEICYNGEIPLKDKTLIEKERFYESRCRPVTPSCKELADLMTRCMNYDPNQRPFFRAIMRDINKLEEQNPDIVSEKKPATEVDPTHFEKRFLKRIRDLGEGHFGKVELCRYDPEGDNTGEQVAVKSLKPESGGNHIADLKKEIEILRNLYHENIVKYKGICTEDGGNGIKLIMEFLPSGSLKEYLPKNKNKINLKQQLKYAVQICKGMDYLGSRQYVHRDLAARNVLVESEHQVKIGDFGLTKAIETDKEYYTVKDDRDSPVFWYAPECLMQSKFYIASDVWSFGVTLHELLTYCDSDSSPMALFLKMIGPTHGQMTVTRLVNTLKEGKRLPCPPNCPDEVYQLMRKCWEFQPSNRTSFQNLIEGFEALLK
Sequence of Serine/threonine-protein kinase MRCK beta (Q9Y5S2 whole entry, the tested form may be a part): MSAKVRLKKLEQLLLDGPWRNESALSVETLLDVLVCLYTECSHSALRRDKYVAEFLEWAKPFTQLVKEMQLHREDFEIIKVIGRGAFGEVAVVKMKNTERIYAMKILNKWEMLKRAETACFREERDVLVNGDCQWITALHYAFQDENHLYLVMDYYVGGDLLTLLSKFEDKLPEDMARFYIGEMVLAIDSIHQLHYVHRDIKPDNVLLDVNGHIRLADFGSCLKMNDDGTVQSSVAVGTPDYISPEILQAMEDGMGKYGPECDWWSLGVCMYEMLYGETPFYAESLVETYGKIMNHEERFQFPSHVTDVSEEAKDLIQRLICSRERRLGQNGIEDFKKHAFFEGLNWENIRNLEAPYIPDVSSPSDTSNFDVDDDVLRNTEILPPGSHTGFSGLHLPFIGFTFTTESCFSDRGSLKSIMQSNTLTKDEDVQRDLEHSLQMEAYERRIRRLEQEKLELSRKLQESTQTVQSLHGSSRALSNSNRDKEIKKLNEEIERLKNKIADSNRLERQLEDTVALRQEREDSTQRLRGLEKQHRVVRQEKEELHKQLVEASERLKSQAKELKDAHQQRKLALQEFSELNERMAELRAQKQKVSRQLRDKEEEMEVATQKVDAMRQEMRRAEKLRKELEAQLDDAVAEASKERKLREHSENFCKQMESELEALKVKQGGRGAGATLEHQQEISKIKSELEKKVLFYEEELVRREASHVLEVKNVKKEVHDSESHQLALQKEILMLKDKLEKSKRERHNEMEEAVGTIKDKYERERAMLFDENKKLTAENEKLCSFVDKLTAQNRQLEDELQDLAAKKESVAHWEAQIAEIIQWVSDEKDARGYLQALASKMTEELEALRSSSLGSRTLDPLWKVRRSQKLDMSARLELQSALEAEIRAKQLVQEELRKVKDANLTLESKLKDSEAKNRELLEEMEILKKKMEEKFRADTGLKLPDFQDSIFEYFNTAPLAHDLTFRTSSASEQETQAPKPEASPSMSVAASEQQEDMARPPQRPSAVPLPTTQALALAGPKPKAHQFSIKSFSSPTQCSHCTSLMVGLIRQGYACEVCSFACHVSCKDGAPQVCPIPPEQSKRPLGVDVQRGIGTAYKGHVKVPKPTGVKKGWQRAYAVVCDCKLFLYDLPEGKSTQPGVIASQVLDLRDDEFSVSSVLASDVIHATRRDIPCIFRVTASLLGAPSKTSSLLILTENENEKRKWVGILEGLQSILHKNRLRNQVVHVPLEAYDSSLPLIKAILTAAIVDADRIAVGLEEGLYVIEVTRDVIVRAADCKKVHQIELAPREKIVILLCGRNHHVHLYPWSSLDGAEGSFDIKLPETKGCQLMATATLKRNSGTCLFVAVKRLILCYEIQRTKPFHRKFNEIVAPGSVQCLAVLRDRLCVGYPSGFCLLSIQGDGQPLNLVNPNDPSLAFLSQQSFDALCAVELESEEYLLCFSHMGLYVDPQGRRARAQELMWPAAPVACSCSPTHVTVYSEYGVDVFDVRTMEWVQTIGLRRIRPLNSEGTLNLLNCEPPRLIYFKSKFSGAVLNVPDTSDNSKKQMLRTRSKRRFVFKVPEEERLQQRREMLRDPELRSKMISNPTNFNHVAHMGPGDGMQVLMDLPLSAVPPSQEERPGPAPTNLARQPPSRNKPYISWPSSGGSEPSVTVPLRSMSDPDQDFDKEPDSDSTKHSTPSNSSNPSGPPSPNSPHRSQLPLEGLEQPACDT
Sequence of Mitogen-activated protein kinase 8 (P45983 whole entry): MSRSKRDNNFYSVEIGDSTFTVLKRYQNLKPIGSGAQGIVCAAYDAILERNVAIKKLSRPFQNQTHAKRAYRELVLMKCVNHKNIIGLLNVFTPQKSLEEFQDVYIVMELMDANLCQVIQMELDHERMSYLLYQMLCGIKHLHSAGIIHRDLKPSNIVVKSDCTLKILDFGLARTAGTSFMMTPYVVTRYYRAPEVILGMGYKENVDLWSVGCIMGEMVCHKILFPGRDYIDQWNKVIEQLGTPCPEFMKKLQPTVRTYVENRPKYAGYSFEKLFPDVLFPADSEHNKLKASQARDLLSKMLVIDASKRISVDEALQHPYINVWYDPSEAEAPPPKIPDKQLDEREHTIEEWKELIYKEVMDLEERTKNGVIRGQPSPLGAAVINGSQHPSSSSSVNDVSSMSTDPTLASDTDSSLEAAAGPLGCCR

The term Kd denotes a measure of binding affinity in units of concentration. Regarding `C[C@@H](Oc1cc(C(=O)Nc2ccc(C(=O)N3CCN(C)CC3)cc2)nnc1N)c1c(Cl)ccc(F)c1Cl`, the Kd in test [1], in test [2], in [3], in test [4], in test [5] and in test [6] was > 30 µM (inactive) each time. In addition, the Kd was 22.2 µM (active) in test [7]; > 30 µM (inactive) in test [8]; > 30 µM (inactive) in test [9]; > 30 µM (inactive) in [10]; > 30 µM (inactive) in test [11]; > 30 µM (inactive) in test [12]. For the same molecule, the Kd in test [13], in [14], in [15], in test [16] and in test [17] was > 30 µM (inactive) in each case.
As for `CCNC(=O)C#Cc1ccc2c(c1)NC(=O)/C2=C(\Nc1ccc(CN(C)C)cc1)c1ccccc1`, the Kd in [1] is > 30 µM (inactive); in test [2] it was 1.59 µM (active); in test [3], > 30 µM (inactive); in [4], > 30 µM (inactive); in [5], > 30 µM (inactive); in test [6], 0.333 µM (active). Also, the Kd in test [18] is > 30 µM (inactive); in [7], > 30 µM (inactive); in test [8], 0.918 µM (active); in test [9] it was 0.059 µM (active); in [10] it was 3.48 µM (active); in test [11], 0.799 µM (active). The Kd in test [12], in test [13], in test [14], in [15], in test [16] and in test [17] was > 30 µM (inactive) in each case.
Consider `Cc1nc2cc(-c3nn(C(C)C)c4ncnc(N)c34)ccc2o1`, for which the Kd in [1], in test [2], in test [3], in [4], in test [5] and in [6] was > 30 µM (inactive) each time. Moreover, the Kd in test [18] is > 30 µM (inactive); in test [7] it was > 30 µM (inactive); in [8] it was 8.21 µM (active); in test [9], > 30 µM (inactive); in test [10], > 30 µM (inactive); in test [11] it was > 30 µM (inactive). The Kd in test [12], in [13], in test [14], in test [15], in test [16] and in test [17] was > 30 µM (inactive) throughout.
As for `Nc1ncnc2c1c(-c1cccc(OCc3ccccc3)c1)cn2[C@H]1C[C@@H](CN2CCC2)C1` [AEW-541], the Kd in test [1], in test [2], in [3], in test [4], in test [5] and in test [6] was > 30 µM (inactive) each time. For the same molecule, the Kd in test [18] is > 30 µM (inactive); in test [7], > 30 µM (inactive); in test [8], > 30 µM (inactive); in test [9], > 30 µM (inactive); in test [10], 6.5 µM (active); in [11] it was > 30 µM (inactive). The Kd in test [12], in test [13], in test [14], in test [15], in [16] and in test [17] was > 30 µM (inactive) each time.
Regarding `C=CC(=O)Nc1cc2c(Nc3ccc(F)c(Cl)c3)ncnc2cc1C#CC(C)(C)N1CCN(C)CC1` [AV-412 FREE BASE], the Kd in [1], in [2], in [3], in [4], in test [5] and in [6] was > 30 µM (inactive) each time. The Kd in test [18], in [7], in [8], in [9], in test [10] and in test [11] was > 30 µM (inactive) throughout. In addition, the Kd in test [12], in [13], in [14], in [15], in test [16] and in [17] was > 30 µM (inactive) each time.
Take `C#Cc1cccc(Nc2ncnc3cc(OC)c(OCCCCCCC(=O)NO)cc23)c1` [CUDC-101]: the Kd in test [1], in test [3], in [4], in test [5], in test [6] and in [18] was > 30 µM (inactive) each time. In addition, the Kd in test [7] was > 30 µM (inactive); in [8], > 30 µM (inactive); in test [9], > 30 µM (inactive); in [10], 2.87 µM (active); in test [11], > 30 µM (inactive); in test [12], > 30 µM (inactive). Moreover, the Kd in test [13], in [14], in test [15], in test [16] and in test [17] was > 30 µM (inactive) in each case.
On to `CN1CCN(CCOc2cc(OC3CCOCC3)c3c(Nc4c(Cl)ccc5c4OCO5)ncnc3c2)CC1` [SARACATINIB], for which the Kd in test [1], in test [3], in test [4], in test [5], in [6] and in test [18] was > 30 µM (inactive) throughout. Besides, the Kd in [7], in test [8], in test [9], in [10], in test [11] and in [12] was > 30 µM (inactive) in each case. The Kd in [13], in [14], in test [15], in test [16] and in test [17] was > 30 µM (inactive) each time.
For `CCS(=O)(=O)c1cccc(-c2cc(C(=O)NC3CCN(C)CC3)c(C)c3[nH]c4ncc(C)cc4c23)c1` [TAK-901], the Kd was > 30 µM (inactive) in test [1]; 0.31 µM (active) in test [2]; > 30 µM (inactive) in [3]; > 30 µM (inactive) in test [4]; > 30 µM (inactive) in test [5]; 0.041 µM (active) in test [6]. Further, the Kd in test [18] was > 30 µM (inactive); in [7], > 30 µM (inactive); in test [9], 0.044 µM (active); in test [10], > 30 µM (inactive); in test [12], 2.98 µM (active); in test [13] it was 1.19 µM. In addition, the Kd in [14], in [15], in test [16] and in test [17] was > 30 µM (inactive) each time.
